# Measured values reported in patent US11220488B2, “Crystalline polymorph of Ponesimod” (TEVA PHARMACEUTICALS INTERNATIONAL GMBH, priority 2017, dated 2022).
# Test: Solubility measurement by dissolution apparatus, Ponesimod content by liquid chromatography
# Assay type: physicochemical
# Method: The solubility for Ponesimod Form T1, according to this invention, Ponesimod Form A and Form C (described in PCT application WO 2010/046835) was measured by using Dissolution apparatus (Lab India DS8000) at 37° C. Buffers at pH. 1.2, 4.5 and 6.8 were prepared as per the USP 36 Solutions/Buffer Solutions 1209. About 200 mg of Ponesimod Form T1, 150 mg of Ponesimod Forms A and C were added to the 100 mL buffer (pH 1.2, 4.5 and 6.8) in individual flasks to obtain saturated suspension and the suspension was stirred with 250 rpm for 24 hours. Suspension was observed though out stirring period. Samples were drawn at different intervals on completion of 15 mins, 30 mins, 45 mins, 1 hrs, 2 hrs, 3 hrs, 4 hrs and 24 hrs from each flask and filtered through 0.45μ PTFE filter, each solution was analyzed for Ponesimod content by liquid chromatography.
structure (smiles),measurement,setting,value
"CCC/N=C1\S/C(=C\c2ccc(OC[C@H](O)CO)c(Cl)c2)C(=O)N1c1ccccc1C [Ponesimod, (R)-5-[3-chloro-4-(2,3-dihydroxy-propoxy)-benz[Z]ylidene]-2-([Z]-propylimino)-3-o-tolyl-thiazolidin-4-one]",Solubility at higher pH conditions,"higher pH conditions (e.g. 4.5 and 6.8), 37° C.",not soluble
"CCC/N=C1\S/C(=C\c2ccc(OC[C@H](O)CO)c(Cl)c2)C(=O)N1c1ccccc1C [Form C, (R)-5-[3-chloro-4-(2,3-dihydroxy-propoxy)-benz[Z]ylidene]-2-([Z]-propylimino)-3-o-tolyl-thiazolidin-4-one]",Solubility results at pH = 1.2,"pH 1.2 buffer, 37° C., 2 Hrs, listed as C",0.09 mg/ml
same,Solubility results at pH = 1.2,"pH 1.2 buffer, 37° C., 3 Hrs, listed as C",0.11 mg/ml
same,Solubility results at pH = 1.2,"pH 1.2 buffer, 37° C., 4 Hrs, listed as C",0.12 mg/ml
same,Solubility results at pH = 1.2,"pH 1.2 buffer, 37° C., 15 Min, listed as C",0.05 mg/ml
same,Solubility results at pH = 1.2,"pH 1.2 buffer, 37° C., 24 Hrs, listed as C",0.15 mg/ml
same,Solubility results at pH = 1.2,"pH 1.2 buffer, 37° C., 30 Min, listed as C",0.06 mg/ml
same,Solubility results at pH = 1.2,"pH 1.2 buffer, 37° C., 45 Min, listed as C",0.07 mg/ml
same,Solubility results at pH = 1.2,"pH 1.2 buffer, 37° C., 60 Min, listed as C",0.08 mg/ml
"CCC/N=C1\S/C(=C\c2ccc(OC[C@H](O)CO)c(Cl)c2)C(=O)N1c1ccccc1C [Form T1, (R)-5-[3-chloro-4-(2,3-dihydroxy-propoxy)-benz[Z]ylidene]-2-([Z]-propylimino)-3-o-tolyl-thiazolidin-4-one]",Solubility compared to other known crystalline polymorphs of Ponesimod,comparison in words,higher solubility
same,Solubility results at pH = 1.2,"pH 1.2 buffer, 37° C., 2 Hrs, listed as T1",0.24 mg/ml
same,Solubility results at pH = 1.2,"pH 1.2 buffer, 37° C., 3 Hrs, listed as T1",0.29 mg/ml
same,Solubility results at pH = 1.2,"pH 1.2 buffer, 37° C., 4 Hrs, listed as T1",0.31 mg/ml
same,Solubility results at pH = 1.2,"pH 1.2 buffer, 37° C., 15 Min, listed as T1",0.07 mg/ml
same,Solubility results at pH = 1.2,"pH 1.2 buffer, 37° C., 24 Hrs, listed as T1",0.40 mg/ml
same,Solubility results at pH = 1.2,"pH 1.2 buffer, 37° C., 30 Min, listed as T1",0.09 mg/ml
same,Solubility results at pH = 1.2,"pH 1.2 buffer, 37° C., 45 Min, listed as T1",0.12 mg/ml
same,Solubility results at pH = 1.2,"pH 1.2 buffer, 37° C., 60 Min, listed as T1",0.15 mg/ml
"CCC/N=C1\S/C(=C\c2ccc(OC[C@H](O)CO)c(Cl)c2)C(=O)N1c1ccccc1C [Form A, (R)-5-[3-chloro-4-(2,3-dihydroxy-propoxy)-benz[Z]ylidene]-2-([Z]-propylimino)-3-o-tolyl-thiazolidin-4-one]",solubility at 45 min,"pH 1.2 buffer (USP), 37 °C, pH 1.2, simulated gastric fluid, thermodynamic from solid, pH 1.2 buffer, 45 Min",120 µg/mL
same,solubility at 60 min,"pH 1.2 buffer (USP), 37 °C, pH 1.2, simulated gastric fluid, thermodynamic from solid, pH 1.2 buffer, 60 Min",120 µg/mL
same,Solubility results at pH = 1.2,"pH 1.2 buffer, 37° C., 2 Hrs, listed as A",0.11 mg/ml
same,Solubility results at pH = 1.2,"pH 1.2 buffer, 37° C., 3 Hrs, listed as A",0.11 mg/ml
same,Solubility results at pH = 1.2,"pH 1.2 buffer, 37° C., 4 Hrs, listed as A",0.11 mg/ml
same,Solubility results at pH = 1.2,"pH 1.2 buffer, 37° C., 30 Min, listed as A",0.13 mg/ml
